Data set [1] relates to transcripts coding for pathogenesis-related proteins (PR1, PR2, PR3, PR5) in tobacco leaves. In words: Accumulation of PR transcripts in treated tobacco leaves (quantitative real-time PCR). The class given is in vivo. Here is the method:
The markers for the acquired local response (ALR) are tested for in the tobacco leaves that have been treated by the infiltration method (20 infiltration points per leaf/50 μL per infiltration) or by spraying (sufficient quantity to cover the leaf and obtain saturation, or approximately 2 mL per leaf) at a rate of 3 leaves per plant (non-senescent basal leaves). The leaves treated are separated from the plant 4 days after treatment and frozen immediately in liquid nitrogen for grinding and extraction of the total RNA. The RNA is extracted in the presence of CTAB buffer according to the protocol described by Chang et al. (1993) [Chang S, Puryear J, Cairney J (1993) A simple and efficient method for isolation RNA from pine trees. Plant mol Biol rep 11: 113-116]. The total RNA is purified and treated by DNase I (1 U) and RNase inhibitor (40 U) (Euromedex), in order to eliminate any possible contamination of the genomic DNA. The total RNA assay is run on the spectrophotometer (NanoDrop-1000). The integrity of the RNA is checked by agarose gel electrophoresis (1%) by detection of the ribosomal RNA subunits. The complementary DNA is synthesized from 1 μg of total RNA using Euroscript Reverse Transcriptase (Eurogentec). The PCR reactions are carried out with the Mastermix for SYBR GREEN kit (Eurogentec) using the iCycler iQ5 software (Bio-Rad). The specificity of the amplification is verified by melting curve analysis. The gene coding for EF-1α is used as an internal control. The quantification of the transcripts is calculated according to the mathematical model developed by Pfaffl (2001). [Pfaffl (2001) A new mathematical model for relative quantification in real time RT-PCR. Nucl. Acids res 29: 2002-7]. […]
4 days after the infiltration, the transcripts coding for pathogenesis-related proteins (PR proteins) are measured by quantitative real-time PCR. The total RNA is extracted from the infiltrated tobacco leaves. The cDNA is synthesized, and the transcripts of interest are quantified using specific primers of the genes PR1, PR2 and PR3.
(In general: Real-time PCR tracks product formation cycle by cycle.)

Another data set relates to tobacco leaf. Nature of the data set: Infiltration of tobacco leaf: chlorosis and synthesis of autofluorescent compounds. The note with it: 4 days after infiltration; for production of autofluorescent compounds around the infiltration sites: solutions 5 mmol·L^−1, infiltrated. The class given is in vivo. The protocol:
The plants are 8 weeks old, in the 12-15 leaf stage, cultured in a greenhouse or growing chamber.
50 μL of different EG solutions having molar concentrations (0.5 mmol·L^−1 to 5 mmol·L^−1) and of MG and PG solutions having a molar concentration of 5 mmol·L^−1 are infiltrated on the upper side of the tobacco leaf. The negative control is water; the positive control is salicylic acid (SA) at a molar concentration of […].
The different plants are photographed 4 days after the infiltration.
The negative control is water.

The subject of a further data set is tobacco BY-2 cells. Nature of the data set: Alkalinization of the extracellular medium of tobacco BY-2 cell cultures. It counts as cell-based. The settings on record: for alkalinization of the extracellular medium: molar concentrations from 2 to 5 mmol·L^−1, BY-2 cultures. The protocol: The cell cultures are tobacco BY-2 cells maintained in cultures at 24° C., under stirring in darkness.
EG solutions (molar concentrations from 0.5 mmol·L^−1 to 5 mmol·L^−1), MG (1 mmol·L^−1 and 5 mmol·L^−1), or PG solutions (1 mmol·L^−1 and 5 mmol·L^−1) are added to tobacco BY-2 cell cultures at time T0. The pH is measured continuously (every 10 min) in the extracellular medium for 150 minutes.
The cell cultures are tobacco BY-2 cells maintained in cultures at 24° C., under stirring and in darkness.
Two GA solutions (0.5 mmol·L^−1 and 5 mmol·L^−1) are added to tobacco BY-2 cell cultures at time T0. The pH is measured continuously (every 10 min) in the extracellular medium for 150 minutes. EG solutions at different molar concentrations (0.5 mmol·L^−1 and 5 mmol·L^−1) are used as controls.

Setting [2] is: 5 mmol·L^−1, infiltration, 4 days after treatment.
The mark [3] stands for this setting: 5 mmol·L^−1, spraying, 4 days after treatment.
Setting [4] is: 50 mmol·L^−1, infiltration, 4 days after treatment.
Where [5] appears, read: GA solutions 58.8 and 5.88 mmol·L^−1, infiltrated.

For `CCOC(=O)c1cc(O)c(O)c(O)c1` [EG, ethyl gallate], in data set [1] (setting [2]), the “Relative quantities of transcripts PR1” value is given as 6.7 ± 1.2, the “Relative quantities of transcripts PR2” value was 6.2 ± 1.7 and the “Relative quantities of transcripts PR3” value is 5.6 ± 1.3. Further, in data set [1] (setting [3]), the “Relative quantities of transcripts PR1” value is on record as 15 ± 0.4, the “Relative quantities of transcripts PR2” value was determined as 32 ± 4.6, the “Relative quantities of transcripts PR3” value is 23 ± 7.1 and the “Relative quantities of transcripts PR5” value came to 14 ± 2.2. In data set [1] (setting [4]), the “Relative quantities of transcripts PR1” value is listed as 3.7 ± 1.3, the “Relative quantities of transcripts PR2” value is 23.4 ± 3.3 and the “Relative quantities of transcripts PR3” value is reported as 30.4 ± 5.3. Besides, the “accumulation of transcripts that are markers of the defense reactions: PR1, PR2, PR3, PR5” value in data set [1] (EG solutions 5 and 50 mmol·L^−1, infiltration or spraying) is reported as “induce the accumulation of transcripts”. Also, the chlorosis entry in the data set on tobacco leaf (EG solutions 0.5 to 5 mmol·L^−1, 50 μL infiltrated on tobacco leaf, natural light) is reported as “do not induce chlorosis”. Also, the “production of autofluorescent compounds of the phytoalexin type around the infiltration sites” value in the data set with tobacco leaf (EG solutions 0.5 to 5 mmol·L^−1, infiltrated, UV 312 nm) is reported as “extensive production of autofluorescent compounds”. Moreover, the “alkalinization of the extracellular medium” value (shortened to “alkalinization”) with tobacco BY-2 cells is reported as “induce a rapid alkalinization”.

As for `O=C(O)c1cc(O)c(O)c(O)c1` [GA, gallic acid, reference compound], the “accumulation of transcripts (PR1, PR2, PR3) compared to water” value in data set [1] (GA solution 5.88 mmol·L^−1, infiltration, 4 days after infiltration) is listed as “does not induce a significant accumulation of transcripts”. Also, in the data set on tobacco leaf (setting [5]), the “autofluorescent zones around the infiltration zones” value is recorded as “not accompanied by autofluorescent zones” and the chlorosis result is on record as “induce strong chlorosis”. The “effect on the pH of the culture medium” value in the data set on tobacco BY-2 cells (GA solutions 0.5 and 5 mmol·L^−1, 150 minutes) is given as “no effect on the pH”.

With `COC(=O)c1cc(O)c(O)c(O)c1` [MG, methyl gallate], the “production of autofluorescent compounds around the infiltration sites” value in the data set on tobacco leaf (UV 312 nm) is recorded as “induce the same phenomenon of production of autofluorescent compounds”. Besides, the “alkalinization” value in the data set with tobacco BY-2 cells was “induce a rapid alkalinization”.

As for `CCCOC(=O)c1cc(O)c(O)c(O)c1` [PG, propyl gallate], the “production of autofluorescent compounds around the infiltration sites” value in the data set on tobacco leaf (UV 312 nm) was “induce the same phenomenon of production of autofluorescent compounds”. In addition, in the data set on tobacco BY-2 cells, the “alkalinization” value was “induce a rapid alkalinization”.

(Values after patent US20170325451A1, “Use of Alkyl Gallate for Stimulating the Natural Defenses of Plants” (priority 2014, published 2017).)
